From ChEMBL document CHEMBL1800071, “Switching reversibility to irreversibility in glycogen synthase kinase 3 inhibitors: clues for specific design of new compounds” (J Med Chem, 2011)
Activity calls are given as the source filed them. The rule behind the calls is not given here.

What was measured:
[1] = molecular target: T1, Glycogen synthase kinase-3 beta (Homo sapiens, UniProt P49841); test: Inhibition of GSK3-beta using GS1 as substrate and [gamma-32P]ATP after 20 mins by radiometric assay
Target sequence in this assay (P49841 whole entry): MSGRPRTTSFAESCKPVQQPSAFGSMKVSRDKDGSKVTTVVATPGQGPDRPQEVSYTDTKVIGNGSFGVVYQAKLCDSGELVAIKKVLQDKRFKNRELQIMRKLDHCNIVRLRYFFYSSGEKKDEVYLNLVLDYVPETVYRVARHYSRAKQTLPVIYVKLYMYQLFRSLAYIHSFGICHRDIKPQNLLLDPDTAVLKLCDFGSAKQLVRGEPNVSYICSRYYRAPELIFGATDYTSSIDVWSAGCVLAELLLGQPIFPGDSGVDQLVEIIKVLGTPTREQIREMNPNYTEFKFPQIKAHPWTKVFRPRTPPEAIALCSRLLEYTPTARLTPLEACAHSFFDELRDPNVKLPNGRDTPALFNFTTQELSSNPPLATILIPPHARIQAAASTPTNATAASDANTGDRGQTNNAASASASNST

[2] = molecular target: T1, Glycogen synthase kinase-3 beta; test: Covalent binding affinity to human recombinant GSK3-beta by MALDI-TOF analysis
Target sequence in this assay (P49841 whole entry, looked up): as the sequence (P49841 whole entry) above

[3] = molecular target: T1, Glycogen synthase kinase-3 beta; test: Irreversible inhibition of human recombinant GSK3-beta using prephosphorylated polypeptide substrate preincubated with enzyme for 5 to 10 mins measured after 30 mins by Glow-type luminescence assay in presence of 1 uM ATP
Target sequence in this assay (P49841 whole entry, looked up): as the sequence (P49841 whole entry) above

[4] = molecular target: T1, Glycogen synthase kinase-3 beta; test: Inhibition of human recombinant GSK3-beta using prephosphorylated polypeptide substrate after 30 mins by Glow-type luminescence assay in presence of 1 uM ATP
Target sequence in this assay (P49841 whole entry): as above

[5] = molecular target: T1, Glycogen synthase kinase-3 beta; test: Reversible inhibition of human recombinant GSK3-beta using prephosphorylated polypeptide substrate preincubated with enzyme for 5 to 10 mins measured after 30 mins by Glow-type luminescence assay in presence of 1 uM ATP
Target sequence in this assay (P49841 whole entry, looked up): as the sequence (P49841 whole entry) above

[6] = molecular target: Insulin receptor (Homo sapiens) (UniProt P06213); test: Inhibition of human recombinant IRK using poly GT as substrate and [gamma-33P]ATP at 10 uM by scintillation counting
[7] = molecular target: Tyrosine-protein kinase ABL1 (Mus musculus) (UniProt P00520); test: Inhibition of mouse recombinant Abl expressed in Escherichia coli assessed as phosphopoly Gt formation using poly Gt as substrate at 10 uM by fluorescence polarization method
[8] = species on record: Rattus norvegicus; test: Displacement of [3H]-AMPA from AMPA glutaminergic receptor in rat cerebral cortex at 10 uM; type: tissue-based
[9] = species on record: Bos taurus; test: Inhibition of bovine thymus protein kinase p56 using poly GT as substrate and [gamma-33P]ATP at 10 uM by scintillation counting
[10] = species on record: Rattus norvegicus; test: Displacement of [3H]-CGP39653 from NMDA glutaminergic receptor in rat cerebral cortex at 10 uM; type: tissue-based
[11] = molecular target: Mitogen-activated protein kinase 1 (Rattus norvegicus) (UniProt P63086); test: Inhibition of rat recombinant ERK42 expressed in Escherichia coli using MBP as substrate and [gamma-33P]ATP at 10 uM by scintillation counting
[12] = species on record: Rattus norvegicus; test: Displacement of [3H]cytisine from alpha-BGTX-insensitive neuronal nicotinic receptor in rat cerebral cortex at 10 uM; type: tissue-based
[13] = molecular target: Adrenergic receptor alpha-2 (Rattus norvegicus) (UniProt P22086+P19328+P22909); test: Displacement of [3H]-RX821002 from adrenergic A2 receptor in rat cerebral cortex at 10 uM; type: tissue-based
[14] = species on record: Rattus norvegicus; test: Displacement of [3H]serotonine from 5-HT receptor in rat cerebral cortex at 10 uM; type: tissue-based
[15] = Inhibition of protein kinase A at 100 uM
[16] = molecular target: Epidermal growth factor receptor (Homo sapiens) (UniProt P00533); test: Inhibition of EGFR kinase in human A431 cells using poly GAT as substrate and [gamma-33P]ATP at 10 uM by scintillation counting; type: cell-based; conditions: A-431
[17] = molecular target: Muscarinic acetylcholine receptor (Rattus norvegicus) (UniProt P08482+P08483+P08485+P08911+P10980); test: Displacement of [3H]-QNB from muscarinic receptor in rat cerebral cortex at 10 uM; type: tissue-based
[18] = molecular target: D(3) dopamine receptor (Homo sapiens) (UniProt P35462); test: Displacement of [3H]spiperone form human recombinant D3 receptor expressed in CHO cells at 10 uM; type: cell-based
[19] = species on record: Rattus norvegicus; test: Displacement of [125I]-alpha-bungarotoxin from alpha-BGTX-sensitive neuronal nicotinic receptor in rat cerebral cortex at 10 uM; type: tissue-based
[20] = system: Calcium/calmodulin-dependent protein kinase type II (Rattus norvegicus); test: Inhibition of rat brain CAM kinase 2 using autocamtide as substrate and [gamma-33P] at 10 uM by scintillation counting
[21] = molecular target: D(2) dopamine receptor (Homo sapiens) (UniProt P14416); test: Displacement of [3H]spiperone form human recombinant D2 receptor expressed in CHO cells at 10 uM; type: cell-based
[22] = molecular target: Proto-oncogene tyrosine-protein kinase Src (Homo sapiens) (UniProt P12931); test: Inhibition of Src kinase at 10 uM
[23] = molecular target: Dual specificity mitogen-activated protein kinase kinase 1 (Oryctolagus cuniculus) (UniProt P29678); test: Inhibition of rabbit recombinant MEK1 expressed in Escherichia coli using inactivated MAP kinase as substrate and [gamma-33P]ATP at 10 uM by scintillation counting
[24] = Inhibition of GSK3 in granule cerebellar neurons assessed as decrease of tau phosphorylation at Ser396 at 25 uM after 16 hrs by Western blot analysis
[25] = Inhibition of GSK3 in granule cerebellar neurons assessed as […] of tau phosphorylation at 25 uM after 16 hrs by Western blot analysis

D(2) dopamine receptor (Homo sapiens), sequence (P14416 whole entry): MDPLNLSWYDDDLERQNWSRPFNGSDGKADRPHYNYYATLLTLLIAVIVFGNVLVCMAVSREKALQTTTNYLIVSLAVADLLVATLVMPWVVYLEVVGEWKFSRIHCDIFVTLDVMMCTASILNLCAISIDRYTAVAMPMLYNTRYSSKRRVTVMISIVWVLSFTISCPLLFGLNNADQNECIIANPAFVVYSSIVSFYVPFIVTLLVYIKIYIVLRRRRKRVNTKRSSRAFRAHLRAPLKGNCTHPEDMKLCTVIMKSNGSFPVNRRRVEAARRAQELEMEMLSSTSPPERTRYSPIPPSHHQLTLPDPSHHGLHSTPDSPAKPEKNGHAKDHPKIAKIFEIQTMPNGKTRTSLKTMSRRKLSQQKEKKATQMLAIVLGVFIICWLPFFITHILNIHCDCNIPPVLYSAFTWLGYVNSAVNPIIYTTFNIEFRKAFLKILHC
Mitogen-activated protein kinase 1 (Rattus norvegicus), sequence (P63086 whole entry): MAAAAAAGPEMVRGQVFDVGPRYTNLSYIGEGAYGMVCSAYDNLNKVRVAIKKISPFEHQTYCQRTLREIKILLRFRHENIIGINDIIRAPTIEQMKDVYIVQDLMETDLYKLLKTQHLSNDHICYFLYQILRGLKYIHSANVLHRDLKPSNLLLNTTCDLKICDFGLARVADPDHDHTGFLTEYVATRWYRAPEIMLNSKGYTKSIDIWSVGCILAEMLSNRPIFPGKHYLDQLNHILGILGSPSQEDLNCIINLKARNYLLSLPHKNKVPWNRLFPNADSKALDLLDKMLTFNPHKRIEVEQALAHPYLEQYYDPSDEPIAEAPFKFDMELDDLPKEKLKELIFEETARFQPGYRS
Dual specificity mitogen-activated protein kinase kinase 1 (Oryctolagus cuniculus), sequence (P29678 whole entry): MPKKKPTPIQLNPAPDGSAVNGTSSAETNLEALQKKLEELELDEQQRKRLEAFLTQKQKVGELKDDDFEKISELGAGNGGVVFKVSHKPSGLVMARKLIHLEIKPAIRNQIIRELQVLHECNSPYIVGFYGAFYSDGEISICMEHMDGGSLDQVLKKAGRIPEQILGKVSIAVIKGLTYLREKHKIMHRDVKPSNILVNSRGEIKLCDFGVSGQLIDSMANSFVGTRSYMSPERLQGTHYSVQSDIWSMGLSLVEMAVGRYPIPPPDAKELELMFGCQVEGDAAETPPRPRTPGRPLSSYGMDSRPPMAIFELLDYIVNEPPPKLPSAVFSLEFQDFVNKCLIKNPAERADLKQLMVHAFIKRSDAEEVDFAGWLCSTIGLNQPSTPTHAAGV
Insulin receptor (Homo sapiens), sequence (P06213 28-758 limits assumed): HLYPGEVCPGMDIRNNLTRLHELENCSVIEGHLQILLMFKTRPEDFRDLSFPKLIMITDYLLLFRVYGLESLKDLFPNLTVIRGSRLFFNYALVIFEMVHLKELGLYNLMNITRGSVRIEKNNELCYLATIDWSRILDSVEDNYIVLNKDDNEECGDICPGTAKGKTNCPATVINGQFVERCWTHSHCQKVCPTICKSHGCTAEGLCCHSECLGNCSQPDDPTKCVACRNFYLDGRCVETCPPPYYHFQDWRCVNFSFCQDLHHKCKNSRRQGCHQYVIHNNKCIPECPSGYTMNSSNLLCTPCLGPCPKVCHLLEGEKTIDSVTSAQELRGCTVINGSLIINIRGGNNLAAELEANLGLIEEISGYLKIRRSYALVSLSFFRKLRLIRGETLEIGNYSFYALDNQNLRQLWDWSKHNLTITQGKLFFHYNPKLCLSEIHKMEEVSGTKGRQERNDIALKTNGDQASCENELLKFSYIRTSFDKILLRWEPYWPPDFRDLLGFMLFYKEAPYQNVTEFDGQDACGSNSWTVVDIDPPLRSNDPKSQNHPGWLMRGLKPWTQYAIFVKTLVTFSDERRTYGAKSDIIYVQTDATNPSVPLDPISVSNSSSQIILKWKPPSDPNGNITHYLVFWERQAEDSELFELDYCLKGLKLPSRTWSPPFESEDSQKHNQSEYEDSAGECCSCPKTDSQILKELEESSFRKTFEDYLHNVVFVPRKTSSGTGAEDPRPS
Insulin receptor (Homo sapiens), sequence (P06213 763-1382 limits assumed): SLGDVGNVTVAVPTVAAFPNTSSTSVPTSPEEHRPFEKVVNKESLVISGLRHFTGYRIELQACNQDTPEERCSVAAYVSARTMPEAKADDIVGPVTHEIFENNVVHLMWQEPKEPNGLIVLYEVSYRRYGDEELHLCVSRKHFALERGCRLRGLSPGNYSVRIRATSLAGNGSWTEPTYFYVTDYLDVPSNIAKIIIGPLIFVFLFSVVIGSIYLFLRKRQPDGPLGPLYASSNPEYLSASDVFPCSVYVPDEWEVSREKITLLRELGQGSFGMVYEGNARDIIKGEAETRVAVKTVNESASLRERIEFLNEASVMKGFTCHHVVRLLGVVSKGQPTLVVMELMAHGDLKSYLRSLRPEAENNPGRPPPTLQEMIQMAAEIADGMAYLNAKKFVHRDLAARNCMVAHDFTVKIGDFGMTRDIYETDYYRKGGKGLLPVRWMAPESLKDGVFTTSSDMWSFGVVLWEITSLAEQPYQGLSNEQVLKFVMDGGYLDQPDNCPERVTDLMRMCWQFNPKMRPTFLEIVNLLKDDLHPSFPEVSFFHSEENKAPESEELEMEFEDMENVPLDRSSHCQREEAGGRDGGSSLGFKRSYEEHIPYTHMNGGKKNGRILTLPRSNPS
D(3) dopamine receptor (Homo sapiens), sequence (P35462 whole entry): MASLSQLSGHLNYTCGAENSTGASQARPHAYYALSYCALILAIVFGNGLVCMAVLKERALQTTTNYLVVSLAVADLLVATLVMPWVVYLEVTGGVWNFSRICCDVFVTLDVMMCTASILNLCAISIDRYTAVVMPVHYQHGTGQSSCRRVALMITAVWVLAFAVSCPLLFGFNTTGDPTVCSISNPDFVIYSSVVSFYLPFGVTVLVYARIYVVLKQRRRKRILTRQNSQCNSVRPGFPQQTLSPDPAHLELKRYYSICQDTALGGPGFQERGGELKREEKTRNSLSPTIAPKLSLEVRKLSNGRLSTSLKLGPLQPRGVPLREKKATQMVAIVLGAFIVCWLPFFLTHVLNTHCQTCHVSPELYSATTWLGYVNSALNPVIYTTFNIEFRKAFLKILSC
Tyrosine-protein kinase ABL1 (Mus musculus), sequence (P00520 whole entry): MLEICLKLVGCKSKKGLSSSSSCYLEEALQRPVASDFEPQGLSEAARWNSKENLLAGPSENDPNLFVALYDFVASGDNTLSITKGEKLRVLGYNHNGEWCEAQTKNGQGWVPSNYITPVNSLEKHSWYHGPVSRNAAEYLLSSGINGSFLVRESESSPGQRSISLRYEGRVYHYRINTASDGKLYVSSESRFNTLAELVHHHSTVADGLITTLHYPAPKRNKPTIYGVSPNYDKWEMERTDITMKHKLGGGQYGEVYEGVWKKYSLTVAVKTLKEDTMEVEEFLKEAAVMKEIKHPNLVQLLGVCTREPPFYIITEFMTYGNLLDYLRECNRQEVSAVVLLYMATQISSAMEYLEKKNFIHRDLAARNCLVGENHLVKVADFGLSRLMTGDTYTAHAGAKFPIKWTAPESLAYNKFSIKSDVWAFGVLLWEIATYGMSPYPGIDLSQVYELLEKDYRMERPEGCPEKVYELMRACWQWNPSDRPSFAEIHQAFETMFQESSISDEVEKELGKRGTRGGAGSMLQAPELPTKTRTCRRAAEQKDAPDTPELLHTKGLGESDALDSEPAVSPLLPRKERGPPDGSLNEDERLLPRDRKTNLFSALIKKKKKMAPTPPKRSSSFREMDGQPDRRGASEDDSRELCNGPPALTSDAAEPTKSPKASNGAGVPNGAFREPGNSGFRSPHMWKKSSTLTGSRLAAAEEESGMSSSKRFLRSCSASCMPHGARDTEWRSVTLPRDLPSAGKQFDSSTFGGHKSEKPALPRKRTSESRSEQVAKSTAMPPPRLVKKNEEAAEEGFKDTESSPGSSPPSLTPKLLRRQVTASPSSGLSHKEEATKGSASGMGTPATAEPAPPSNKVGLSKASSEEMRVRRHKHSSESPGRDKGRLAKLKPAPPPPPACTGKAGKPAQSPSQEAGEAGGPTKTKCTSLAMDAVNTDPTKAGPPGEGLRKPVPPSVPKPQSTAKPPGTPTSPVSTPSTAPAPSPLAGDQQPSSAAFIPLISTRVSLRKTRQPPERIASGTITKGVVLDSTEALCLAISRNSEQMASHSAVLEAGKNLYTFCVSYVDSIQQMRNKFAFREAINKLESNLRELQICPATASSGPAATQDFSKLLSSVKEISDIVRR

O=C(c1ccccn1)C(Br)Br
IC50 [1]: 2.5 µM

Nc1c(Br)cc(C(=O)C(Br)Br)cc1Br
IC50 [1]: 0.5 µM

O=C(c1ccc(I)cc1)C(Br)Br
IC50 [1]: 2 µM

Cn1cc(C2=C(C(=O)CBr)C(=O)NC2=O)c2ccccc21
Activity [2]: Active
inhibition [3]: Active
IC50 [4]: 0.005 µM

CCSCC(=O)c1ccc(Br)cc1
IC50 [1]: > 10 µM

Nc1ncnc2c1ncn2C(=O)CCl
IC50 [4]: 13.4 µM

O=C(CBr)c1ccc(C(F)(F)F)cc1
IC50 [1]: 5 µM

O=C(CBr)C1=C(c2c[nH]c3ccccc23)C(=O)NC1=O
inhibition [3]: Active
IC50 [4]: 0.047 µM

CC(=O)C1=C(c2cn(C)c3ccccc23)C(=O)NC1=O
Activity [2]: Active
inhibition [5]: Active
IC50 [4]: 0.89 µM

O/N=C(\CBr)c1ccc(Br)cc1
IC50 [1]: > 100 µM

O=C(CN1C(=O)c2ccccc2C1=O)c1ccc(Br)cc1
IC50 [1]: 100 µM

CO/N=C(\CBr)c1ccc(Br)cc1
IC50 [1]: 50 µM

O=C(CBr)c1ccc(N2CCOCC2)cc1
IC50 [1]: 6 µM

CC(=O)n1cnc2c(N)ncnc21
IC50 [4]: > 50 µM

CC(=O)C1=C(c2c[nH]c3ccccc23)C(=O)NC1=O
inhibition [5]: Active
IC50 [4]: 4.47 µM

N#Cc1cccc(C(=O)C(Br)Br)c1
IC50 [1]: 1 µM

COc1ccc(-n2cnc3cc(C(=O)CBr)ccc32)cc1
inhibition [3]: Active
IC50 [4]: 0.58 µM

O=C(CCl)c1ccc(Cl)cc1
inhibition [6]: < 10%
inhibition [7]: < 10%
inhibition [8]: < 10%
inhibition [9]: < 10%
inhibition [10]: 15%
inhibition [11]: < 10%
inhibition [12]: < 10%
inhibition [13]: < 10%
inhibition [14]: < 10%
inhibition [15]: inactive
inhibition [16]: < 10%
inhibition [17]: < 10%
inhibition [18]: < 10%
inhibition [19]: < 10%
inhibition [20]: 16%
inhibition [21]: < 10%
inhibition [22]: 19%
inhibition [23]: < 10%

O=C(CO)c1ccc(Br)cc1
IC50 [1]: > 100 µM

COc1ccc(-n2cnc3cc(C(C)=O)ccc32)cc1
IC50 [4]: > 10 µM

O=C(CSc1ccccc1)c1ccc(Br)cc1
IC50 [1]: > 100 µM

NCC(=O)c1ccc(Br)cc1
IC50 [1]: 100 µM

O=C(c1ccc(C(F)(F)F)cc1)C(Br)Br
IC50 [1]: 5 µM

O=C(CBr)c1ccc(Br)cc1
inhibition [6]: < 10%
inhibition [7]: < 10%
inhibition [8]: < 10%
inhibition [9]: 29%
inhibition [10]: < 10%
inhibition [11]: < 10%
inhibition [12]: 16%
inhibition [13]: < 10%
inhibition [14]: < 10%
inhibition [15]: inactive
inhibition [16]: 18%
inhibition [17]: < 10%
inhibition [18]: < 10%
inhibition [19]: < 10%
inhibition [20]: < 10%
inhibition [21]: < 10%
inhibition [22]: 38%
inhibition [23]: < 10%

N#Cc1ccc(C(=O)C(Br)Br)cc1
IC50 [1]: 1.5 µM

[Cl-].[Li+]
inhibition [24]: Active
inhibition [25]: Active

O=C(CSCc1ccccc1)c1ccc(Br)cc1
IC50 [1]: > 10 µM

[O-][S+](CCl)c1ccc(Br)cc1 (stereo unspecified)
IC50 [1]: > 100 µM

CC(=O)OCC(=O)c1ccc(Br)cc1
IC50 [1]: > 100 µM
